For 12 molecules, IC50 results are on record in BindingDB's records for patent US10322118 (Dartmouth College, 2019).

The term IC50 denotes the concentration needed to halve the response being measured.

One experiment addresses T1, Putative hydrolase (Pseudomonas aeruginosa (strain UCBPP-PA14), UniProt A0A0H2ZD27).
T1 sequence (A0A0H2ZD27 whole entry): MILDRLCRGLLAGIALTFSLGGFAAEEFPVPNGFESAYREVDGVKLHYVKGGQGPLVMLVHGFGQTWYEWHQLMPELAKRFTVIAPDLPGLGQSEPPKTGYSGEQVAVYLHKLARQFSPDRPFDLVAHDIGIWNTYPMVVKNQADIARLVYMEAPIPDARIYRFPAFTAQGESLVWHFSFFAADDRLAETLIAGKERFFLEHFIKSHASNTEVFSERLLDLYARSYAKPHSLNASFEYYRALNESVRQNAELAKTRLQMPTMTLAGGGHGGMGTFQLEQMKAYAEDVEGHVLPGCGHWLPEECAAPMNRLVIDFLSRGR
Kind of experiment: Biochemical Characterization of Cif Inhibitors.
Regarding `O=C(O)Cc1cc(I)c(Oc2cc(I)c(O)c(I)c2)c(I)c1` [US10322118, Entry 1], half-maximal inhibition (IC50) required 20 µM.
On to `O=C(O)Cc1cc(I)c(Oc2ccc(O)cc2)c(I)c1` [US10322118, Entry 3], for which the IC50 is 100 µM.
For `Cc1cc(OCC(=O)O)cc(C)c1Cc1ccc(O)c(C(C)C)c1` [US10322118, Entry 7], the IC50 was above 100 µM.
The molecule `Oc1ccc(Oc2ccccc2)cc1` [US10322118, Entry 9] showed an IC50 above 100 µM.
`Nc1ccc(Oc2ccccc2)cc1` [US10322118, Entry 10] yielded an IC50 above 100 µM.
On the same count and under the same terms, the value for `O=C(O)c1ccc(Oc2ccccc2)cc1` [US10322118, Entry 11] was above 100 µM.
`CCC(=O)Oc1ccc(NC(=O)NC23CC4CC(CC(C4)C2)C3)cc1` [US10322118, Urea-Based Scaffold Entry 1] registered an IC50 above 100 µM.
Regarding `Cc1cc(C)cc(NC(=O)NC(=O)c2c(F)cccc2F)c1` [US10322118, Urea-Based Scaffold Entry 3], the IC50 turned out to be 1.8 µM.
Same read-out and setting: the result for `O=C(NC(=O)c1c(F)cccc1F)Nc1cc(Cl)cc(Cl)c1` [US10322118, Urea-Based Scaffold Entry 4] reads 1.5 µM; that for `CN(C(=O)NC(=O)c1c(F)cccc1F)c1ccc(Cl)cc1` [US10322118, Urea-Based Scaffold Entry 7], above 100 µM; that for `Cc1ccc(-c2cc(C(F)(F)F)nn2-c2ccc(S(N)(=O)=O)cc2)cc1` [US10322118, Urea-Based Scaffold Entry 9], 7.4 µM.

The target of another experiment is T2, Bifunctional epoxide hydrolase 2 (Homo sapiens, UniProt P34913).
T2 sequence (P34913 whole entry): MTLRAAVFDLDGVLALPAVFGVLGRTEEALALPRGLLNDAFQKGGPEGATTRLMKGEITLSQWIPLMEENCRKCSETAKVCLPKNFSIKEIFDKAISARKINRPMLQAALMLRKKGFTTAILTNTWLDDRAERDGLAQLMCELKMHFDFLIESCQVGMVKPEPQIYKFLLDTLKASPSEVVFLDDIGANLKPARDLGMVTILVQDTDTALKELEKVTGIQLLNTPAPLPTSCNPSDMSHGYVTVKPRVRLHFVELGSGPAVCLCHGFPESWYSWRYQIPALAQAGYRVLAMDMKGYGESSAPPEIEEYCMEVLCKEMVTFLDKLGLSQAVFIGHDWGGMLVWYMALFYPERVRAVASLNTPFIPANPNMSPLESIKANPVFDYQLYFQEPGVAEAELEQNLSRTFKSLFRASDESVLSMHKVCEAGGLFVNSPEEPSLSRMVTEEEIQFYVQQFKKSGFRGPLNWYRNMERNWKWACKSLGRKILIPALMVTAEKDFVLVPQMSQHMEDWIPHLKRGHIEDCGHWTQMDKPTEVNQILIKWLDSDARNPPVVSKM
Briefly: Biochemical Characterization of Cif Inhibitors.
In turn, `CCC(=O)Oc1ccc(NC(=O)NC23CC4CC(CC(C4)C2)C3)cc1` [US10322118, Urea-Based Scaffold Entry 1] came in with an IC50 of 0.0038 µM.
With `CCCCCCCCCCCCS(C)(=O)=O` [US10322118, Urea-Based Scaffold Entry 8], the midpoint of inhibition, the IC50, lay at 33.3 µM.
